In the test the target is T1, PLK1 (Homo sapiens, UniProt P53350).
T1 construct: endogenous in cells; host or cells: HeLa
Kind of test: PLK1 protein degradation in HeLa cells, Western blotting (PLK1/GAPDH ratio). Type of test: cell-based. Particulars: 6 hours compound incubation; for DC50: measured only if the grade of Dmax is A or B; for Dmax: thymidine block and release, 10 points three-fold from 3 μM, PLK1 to GAPDH ratio, read-out: Dmax. Summed up: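 PLK1 level measured by Western blot as PLK1/GAPDH in HeLa lysates (15 μg protein per lane). Cells were blocked with 2 mM thymidine 24 h, released 4 h, and exposed 6 h to compound, 10 concentrations, 3-fold steps, top 3 μM.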

T1 sequence (P53350 whole entry): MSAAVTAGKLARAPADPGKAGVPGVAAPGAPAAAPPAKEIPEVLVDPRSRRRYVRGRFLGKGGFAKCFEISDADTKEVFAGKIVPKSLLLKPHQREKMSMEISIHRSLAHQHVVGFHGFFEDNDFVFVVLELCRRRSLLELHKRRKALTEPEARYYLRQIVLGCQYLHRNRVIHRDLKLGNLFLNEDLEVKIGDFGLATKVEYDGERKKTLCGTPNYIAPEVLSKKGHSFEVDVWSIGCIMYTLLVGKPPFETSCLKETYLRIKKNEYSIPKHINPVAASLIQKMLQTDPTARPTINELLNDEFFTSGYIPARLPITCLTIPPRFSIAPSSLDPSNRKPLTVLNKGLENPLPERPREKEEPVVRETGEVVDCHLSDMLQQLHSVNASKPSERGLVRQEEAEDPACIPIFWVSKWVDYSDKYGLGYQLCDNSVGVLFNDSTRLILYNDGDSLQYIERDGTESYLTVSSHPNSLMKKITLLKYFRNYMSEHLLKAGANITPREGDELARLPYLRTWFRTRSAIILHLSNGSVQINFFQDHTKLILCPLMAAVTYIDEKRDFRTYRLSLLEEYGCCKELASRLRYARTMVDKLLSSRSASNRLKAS

In the case of `CN1C(=O)C(F)(F)CN(C2CCCC2)c2nc(Nc3ccc(C(=O)NC4CCN(C(=O)CCCNc5cccc6c5C(=O)N(C5CCC(=O)NC5=O)C6=O)CC4)cc3)ncc21` (stereo not drawn) [Example 102, 4-((9-cyclopentyl-7,7-difluoro-5-methyl-6-oxo-6,7,8,9-tetrahydro-5H-pyrimido[4,5-b][1,4]diazepin-2-yl)amino)-N-(1-(4-((2-(2,6-dioxopiperidin-3-yl)-1,3-dioxoisoindolin-4-yl)amino)butanoyl)piperidin-4-yl)benzamide], the DC50 is no more than 50 nM and the Dmax is no less than 80%.

As to `COc1cc(C(=O)N[C@H]2CCN(C(=O)COCCOCCOCCOCCNc3cccc4c3C(=O)N(C3CCC(=O)NC3=O)C4=O)C2)c(F)cc1Nc1ncc2c(n1)N(C1CCCC1)CC(F)(F)C(=O)N2C` (stereo partly drawn) [Compound 116, 4-((9-cyclopentyl-7,7-difluoro-5-methyl-6-oxo-6,7,8,9-tetrahydro-5H-pyrimido[4,5-b][1,4]diazepin-2-yl)amino)-N-((3S)-1-(14-((2-(2,6-dioxopiperidin-3-yl)-1,3-dioxoisoindolin-4-yl)amino)-3,6,9,12-tetraoxatetradecanoyl)pyrrolidin-3-yl)-2-fluoro-5-methoxybenzamide], the DC50 is no more than 50 nM and the maximal degradation (Dmax) is no less than 80%.

Turning to `COc1cc(C(=O)NC2CCN(CCCCCNc3cccc4c3C(=O)N(C3CCC(=O)NC3=O)C4=O)C2)c(F)cc1Nc1ncc2c(n1)N(C1CCCC1)CC(F)(F)C(=O)N2C` (stereo not drawn) [Example 109, 4-((9-cyclopentyl-7,7-difluoro-5-methyl-6-oxo-6,7,8,9-tetrahydro-5H-pyrimido[4,5-b][1,4]diazepin-2-yl)amino)-N-(1-(5-((2-(2,6-dioxopiperidin-3-yl)-1,3-dioxoisoindolin-4-yl)amino)pentyl)pyrrolidin-3-yl)-2-fluoro-5-methoxybenzamide], the 50% degradation concentration (DC50) was no more than 500 nM and the Dmax fell in the range of 60 to 80%.

As for `COc1cc(C(=O)N[C@@H]2CCN(C(=O)CCN3CCN(c4ccc5c(c4)C(=O)N(C4CCC(=O)NC4=O)C5=O)CC3)C2)c(F)cc1Nc1ncc2c(n1)N(C1CCCC1)CC(F)(F)C(=O)N2C` (stereo partly drawn) [Compound 137, 4-((9-cyclopentyl-7,7-difluoro-5-methyl-6-oxo-6,7,8,9-tetrahydro-5H-pyrimido[4,5-b][1,4]diazepin-2-yl)amino)-N-((3R)-1-(3-(4-(2-(2,6-dioxopiperidin-3-yl)-1,3-dioxoisoindolin-5-yl)piperazin-1-yl)propanoyl)pyrrolidin-3-yl)-2-fluoro-5-methoxybenzamide], the half-maximal degradation concentration (DC50) is no more than 50 nM and the Dmax was no less than 80%.

Turning to `COc1cc(C(=O)NC2CCN(CCOCCOCCNc3cccc4c3C(=O)N(C3CCC(=O)N(C)C3=O)C4=O)CC2)c(F)cc1Nc1ncc2c(n1)N(C1CCCC1)CC(F)(F)C(=O)N2C` (stereo not drawn) [Compound 6, 4-((9-cyclopentyl-7,7-difluoro-5-methyl-6-oxo-6,7,8,9-tetrahydro-5H-pyrimido[4,5-b][1,4]diazepin-2-yl)amino)-2-fluoro-5-methoxy-N-(1-(2-(2-(2-((2-(1-methyl-2,6-dioxopiperidin-3-yl)-1,3-dioxoisoindolin-4-yl)amino)ethoxy)ethoxy)ethyl)piperidin-4-yl)benzamide], the Dmax was less than 60%.

In the case of `COc1cc(C(=O)NCCCOCCCOCCNc2cccc3c2C(=O)N(C2CCC(=O)NC2=O)C3=O)c(F)cc1Nc1ncc2c(n1)N(C1CCCC1)CC(F)(F)C(=O)N2C` (stereo not drawn) [Compound 157, 4-((9-cyclopentyl-7,7-difluoro-5-methyl-6-oxo-6,7,8,9-tetrahydro-5H-pyrimido[4,5-b][1,4]diazepin-2-yl)amino)-N-(3-(3-(2-((2-(2,6-dioxopiperidin-3-yl)-1,3-dioxoisoindolin-4-yl)amino)ethoxy)propoxy)propyl)-2-fluoro-5-methoxybenzamide], the 50% degradation concentration (DC50) was no more than 50 nM and the Dmax was no less than 80%.

For the molecule `COc1cc(C(=O)NCCCOCCCOCCNc2cccc3c2CN(C2CCC(=O)NC2=O)C3=O)ccc1Nc1ncc2c(n1)N(C1CCCC1)CC(F)(F)C(=O)N2C` (stereo not drawn) [Example 171, 4-((9-cyclopentyl-7,7-difluoro-5-methyl-6-oxo-6,7,8,9-tetrahydro-5H-pyrimido[4,5-b][1,4]diazepin-2-yl)amino)-N-(3-(3-(2-((2-(2,6-dioxopiperidin-3-yl)-1-oxoisoindolin-4-yl)amino)ethoxy)propoxy)propyl)-3-methoxybenzamide], the maximal degradation (Dmax) was no less than 80%.

Take `COc1cc(C(=O)NC2CCN(CCC(=O)NCCCCCCCNC(=O)COc3cccc4c3C(=O)N(C3CCC(=O)NC3=O)C4=O)CC2)c(F)cc1Nc1ncc2c(n1)N(C1CCCC1)CC(F)(F)C(=O)N2C` (stereo not drawn) [Compound 60, 4-((9-cyclopentyl-7,7-difluoro-5-methyl-6-oxo-6,7,8,9-tetrahydro-5H-pyrimido[4,5-b][1,4]diazepin-2-yl)amino)-N-(1-(3-((7-(2-((2-(2,6-dioxopiperidin-3-yl)-1,3-dioxoisoindolin-4-yl)oxy)acetamido)heptyl)amino)-3-oxopropyl)piperidin-4-yl)-2-fluoro-5-methoxybenzamide]: the half-maximal degradation concentration (DC50) was no more than 50 nM and the Dmax was no less than 80%.

In the case of `COc1cc(C(=O)NC2CCN(C(=O)COCCNc3cccc4c3C(=O)N(C3CCC(=O)NC3=O)C4=O)CC2)c(F)cc1Nc1ncc2c(n1)N(C1CCCC1)CC(F)(F)C(=O)N2C` (stereo not drawn) [Compound 31, 4-((9-cyclopentyl-7,7-difluoro-5-methyl-6-oxo-6,7,8,9-tetrahydro-5H-pyrimido[4,5-b][1,4]diazepin-2-yl)amino)-N-(1-(2-(2-((2-(2,6-dioxopiperidin-3-yl)-1,3-dioxoisoindolin-4-yl)amino)ethoxy)acetyl)piperidin-4-yl)-2-fluoro-5-methoxybenzamide], the Dmax is less than 60%.

Take `COc1cc(C(=O)NCC2CCCN2CCOCCNc2cccc3c2C(=O)N(C2CCC(=O)NC2=O)C3=O)c(F)cc1Nc1ncc2c(n1)N(C1CCCC1)CC(F)(F)C(=O)N2C` (stereo not drawn) [Compound 124, 4-((9-cyclopentyl-7,7-difluoro-5-methyl-6-oxo-6,7,8,9-tetrahydro-5H-pyrimido[4,5-b][1,4]diazepin-2-yl)amino)-N-((1-(2-(2-((2-(2,6-dioxopiperidin-3-yl)-1,3-dioxoisoindolin-4-yl)amino)ethoxy)ethyl)pyrrolidin-2-yl)methyl)-2-fluoro-5-methoxybenzamide]: the DC50 is no more than 500 nM and the Dmax lay within 60 to 80%.

`COc1cc(C(=O)NCCOCCCNc2cccc3c2C(=O)N(C2CCC(=O)NC2=O)C3=O)c(F)cc1Nc1ncc2c(n1)N(C1CCCC1)CC(F)(F)C(=O)N2C` (stereo not drawn) [Compound 155, 4-((9-cyclopentyl-7,7-difluoro-5-methyl-6-oxo-6,7,8,9-tetrahydro-5H-pyrimido[4,5-b][1,4]diazepin-2-yl)amino)-N-(2-(3-((2-(2,6-dioxopiperidin-3-yl)-1,3-dioxoisoindolin-4-yl)amino)propoxy)ethyl)-2-fluoro-5-methoxybenzamide]: the 50% degradation concentration (DC50) is no more than 500 nM and the Dmax was in the range of 60 to 80%.

In the case of `COc1cc(C(=O)NC2CCN(CCOCCOCCCc3cccc4c3C(=O)N(C3CCC(=O)NC3=O)C4=O)CC2)c(F)cc1Nc1ncc2c(n1)N(C1CCCC1)CC(F)(F)C(=O)N2C` (stereo not drawn) [Compound 55, 4-((9-cyclopentyl-7,7-difluoro-5-methyl-6-oxo-6,7,8,9-tetrahydro-5H-pyrimido[4,5-b][1,4]diazepin-2-yl)amino)-N-(1-(2-(2-(3-(2-(2,6-dioxopiperidin-3-yl)-1,3-dioxoisoindolin-4-yl)propoxy)ethoxy)ethyl)piperidin-4-yl)-2-fluoro-5-methoxybenzamide], the DC50 is no more than 500 nM and the Dmax lay in the range of 60 to 80%.

On to `COc1cc(C(=O)NCC2CCCCN2CCOCCNc2cccc3c2C(=O)N(C2CCC(=O)NC2=O)C3=O)c(F)cc1Nc1ncc2c(n1)N(C1CCCC1)CC(F)(F)C(=O)N2C` (stereo not drawn) [Compound 126, 4-((9-cyclopentyl-7,7-difluoro-5-methyl-6-oxo-6,7,8,9-tetrahydro-5H-pyrimido[4,5-b][1,4]diazepin-2-yl)amino)-N-((1-(2-(2-((2-(2,6-dioxopiperidin-3-yl)-1,3-dioxoisoindolin-4-yl)amino)ethoxy)ethyl)piperidin-2-yl)methyl)-2-fluoro-5-methoxybenzamide], for which the DC50 was no more than 500 nM and the greatest degradation seen (Dmax) lay in the range of 60 to 80%.

Turning to `COc1cc(C(=O)NC2CCN(CCOCCOCCOCCOCCNc3cccc4c3CN(C3CCC(=O)NC3=O)C4=O)CC2)c(F)cc1Nc1ncc2c(n1)N(C1CCCC1)CC(F)(F)C(=O)N2C` (stereo not drawn) [Compound 76, 4-((9-cyclopentyl-7,7-difluoro-5-methyl-6-oxo-6,7,8,9-tetrahydro-5H-pyrimido[4,5-b][1,4]diazepin-2-yl)amino)-N-(1-(14-((2-(2,6-dioxopiperidin-3-yl)-1-oxoisoindolin-4-yl)amino)-3,6,9,12-tetraoxatetradecyl)piperidin-4-yl)-2-fluoro-5-methoxybenzamide], the DC50 was no more than 500 nM and the Dmax was 60 to 80%.

For the molecule `COc1cc(C(=O)NC2CCN(CCOCCCCCCCCOCCNc3cccc4c3C(=O)N(C3CCC(=O)NC3=O)C4=O)CC2)c(F)cc1Nc1ncc2c(n1)N(C1CCCC1)CC(F)(F)C(=O)N2C` (stereo not drawn) [Compound 22, 4-((9-cyclopentyl-7,7-difluoro-5-methyl-6-oxo-6,7,8,9-tetrahydro-5H-pyrimido[4,5-b][1,4]diazepin-2-yl)amino)-N-(1-(2-((8-(2-((2-(2,6-dioxopiperidin-3-yl)-1,3-dioxoisoindolin-4-yl)amino)ethoxy)octyl)oxy)ethyl)piperidin-4-yl)-2-fluoro-5-methoxybenzamide], the DC50 is no more than 500 nM and the greatest degradation seen (Dmax) lay in the range of 60 to 80%.

The values above are taken from patent US20230372498A1, “PLK1 SELECTIVE DEGRADATION INDUCING COMPOUND” (UPPTHERA, priority 2020, published 2023).
